Laboratory results reported in ChEMBL document CHEMBL5137130, “Highly N-Methylated Peptides from the Antarctic Sponge Inflatella coelosphaeroides Are Active against Plasmodium falciparum” (J Nat Prod, 2022).
Where a SMILES comes first, the peptide text is derived from it. [ ]: non-standard residue; d: D form. The star is where a group is joined. Phe(Nα-CONH2) = NC(=O)N[C@@H](Cc1ccccc1)C(=O)*; NMeI = CC[C@H](C)[C@H](NC)C(=O)O; X1 = CN(/C=C\c1c[nH]c2ccccc12)*; NMeL = CN[C@@H](CC(C)C)C(=O)O; NMeV = CN[C@H](C(=O)O)C(C)C; NMeA = CN[C@@H](C)C(=O)O; For = O=C*

Legend:
Plasmodium falciparum [1] = assay: Antimalarial activity against blood stage chloroquine-sensitive Plasmodium falciparum NF54 assessed as reduction in parasite growth incubated for 72 hrs by SYBR Green dye based fluorescence assay; format: functional, organism-based; conditions: NF54, 72 h
Plasmodium falciparum [2] = assay: Antimalarial activity against blood stage chloroquine-resistant Plasmodium falciparum Dd2 assessed as reduction in parasite growth incubated for 72 hrs by SYBR Green dye based fluorescence assay; format: functional, organism-based; conditions: Dd2, 72 h
Plasmodium falciparum [3] = assay: Antimalarial activity against blood stage chloroquine-sensitive Plasmodium falciparum 3D7 assessed as reduction in parasite growth incubated for 72 hrs by SYBR Green dye based fluorescence assay; format: functional, organism-based; conditions: 3D7, 72 h
[4] = Cytotoxicity against mouse J774 cells assessed as reduction in cell viability incubated for 68 hrs by CellTiter96 Aqueous One Solution Cell Proliferation Assay; format: toxicity, cell-based

Row | SMILES | IC50 (Plasmodium falciparum [1]) | IC50 (Plasmodium falciparum [2]) | IC50 (Plasmodium falciparum [3]) | IC50 at 68 h [4]
1 | CNC(=O)[C@H](C(C)C)N(C)C(=O)[C@H](C(C)C)N(C)C(=O)[C@H](C(C)C)N(C)C(=O)[C@H](C)N(C)C(=O)[C@H](C)N(C)C(=O)[C@H](CC(C)C)N(C)C(=O)[C@H](C(C)C)N(C)C(=O)[C@H](Cc1ccccc1)NC(N)=O ({Phe(Nα-CONH2)}-[NMeV][NMeL][NMeA][NMeA][NMeV][NMeV][NMeV]-NHMe) | 3.05 µM | 2.02 µM | > 10 µM | > 20 µM
2 | CC[C@H](C)[C@@H](C(=O)N(C)[C@@H](C)C(=O)N(C)[C@H](C(N)=O)C(C)C)N(C)C(=O)[C@H]([C@@H](C)CC)N(C)C(=O)[C@H](C)N(C)C(=O)[C@H](C(C)C)N(C)C(=O)[C@H](C)N(C)C(=O)[C@@H](NC(C)=O)C(C)C (Ac-V[NMeA][NMeV][NMeA][NMeI][NMeI][NMeA][NMeV]-NH2) | > 10 µM | > 10 µM | > 10 µM | > 20 µM
3 | CNC(=O)[C@H](C(C)C)N(C)C(=O)[C@H](C(C)C)N(C)C(=O)[C@H](C(C)C)N(C)C(=O)[C@H](C)N(C)C(=O)[C@H](C)N(C)C(=O)[C@H](CC(C)C)N(C)C(=O)[C@H](C(C)C)N(C)C(=O)[C@H](Cc1ccccc1)NC=O (For-F[NMeV][NMeL][NMeA][NMeA][NMeV][NMeV][NMeV]-NHMe) | 3.73 µM | 1.07 µM | 2.52 µM | > 20 µM
4 | CC[C@H](C)[C@@H](C(=O)N(C)/C=C\c1c[nH]c2ccccc12)N(C)C(=O)[C@H](C(C)C)N(C)C(=O)[C@H](C(C)C)N(C)C(=O)[C@H](CC(C)C)N(C)C(=O)[C@@H]1CCCN1C(=O)[C@H](Cc1ccccc1)NC(=O)[C@H](Cc1ccccc1)NC(C)=O (Ac-FFP[NMeL][NMeV][NMeV][NMeI]-X1) | 3.93 µM | 3.3 µM | 8.65 µM | > 20 µM
5 | CC[C@H](C)[C@@H](C(N)=O)N(C)C(=O)[C@H](C(C)C)N(C)C(=O)[C@H](CC(C)C)N(C)C(=O)[C@H](Cc1ccccc1)N(C)C(=O)[C@H](Cc1ccccc1)NC=O | 2.61 µM | 1.72 µM | 2.1 µM | > 20 µM
6 | CC[C@H](C)[C@@H](C(=O)N(C)[C@H](C(=O)NC)[C@@H](C)CC)N(C)C(=O)[C@H](C(C)C)N(C)C(=O)[C@H](C)N(C)C(=O)[C@H](C(C)C)N(C)C(=O)[C@H](C(C)C)N(C)C(=O)[C@@H](NC=O)C(C)C (For-V[NMeV][NMeV][NMeA][NMeV][NMeI][NMeI]-NHMe) | > 10 µM | 4.37 µM | > 10 µM | > 20 µM
7 | CC[C@H](C)[C@@H](C(=O)NC)N(C)C(=O)[C@H](C)N(C)C(=O)[C@H](C(C)C)N(C)C(=O)[C@H](C(C)C)N(C)C(=O)[C@H](C)N(C)C(=O)[C@H](C(C)C)N(C)C(=O)[C@H](C(C)C)N(C)C(=O)[C@H](C)N(C)C(=O)[C@H](C)NC(C)=O (Ac-A[NMeA][NMeV][NMeV][NMeA][NMeV][NMeV][NMeA][NMeI]-NHMe) | > 10 µM | > 10 µM | > 10 µM | > 20 µM
